Measured values taken from patent publication US9199976B2, “Haematopoietic-prostaglandin D2 synthase inhibitors” (The University of Queensland, priority 2010, dated 2015).

Legend:
[1] = test system: MEG-01S cells; assay: MEG-01S cell viability by MTT assay; assay type: cell-based, human; conditions: 24 h, 0-100 μM
Experimental: (§1) All bone marrow-derived macrophages (BMM) were obtained by culturing bone marrow cells from the femurs of 6 to 8 week old C57BL/6 male mice in RPMI 1640 medium (Invitrogen Life Technologies, Carlsbad, Calif., USA) supplemented with 10% Fetal calf serum (Invitrogen) 20 U/ml penicillin and 20 μg/ml streptomycin (Invitrogen), 2 mM L-glutamine (Glutamax-1, Invitrogen) in the presence of 10^4 U/ml (100 ng/mL) recombinant human CSF-1 (a gift from Chiron, Emeryville, Calif.) on bacteriological plastic plates for 7 days. The human megakaryocytic cell line MEG-01S was obtained from the American Type Culture Collection. MEG-01S were maintained in the same media as for BMM, supplemented with 1 mM Sodium Pyruvate (Invitrogen).
(§2) Known inhibitors 1 and 2, along with compound 3, were used to treat BMM at three doses (10, 30, 100 μM) in the presence of LPS for 24 h and cell viability was measured by MTT assay. BMM were seeded at 1×10^5 cells/well in 96 well plates and treated for 24 h with LPS (10 ng/ml) and compounds at 10, 30 and 100 μM. MEG-01S were PMA differentiated overnight before compounds were added for a further 24 h at 10, 30 and 100 μM. Cell viability was measured by MTT (Sigma-Aldrich) assay as described previously (Irvine, FASEB J, 2006).
The effect of the compounds on MEG-01S cell viability was measured by MTT assay after 24 h treatment across the concentration range 0-100 μM of compounds (FIG. 3B). Data represent the average of 4 independent experiments plus SEM.

[2] = test system: PGD2 production in mouse primary bone marrow-derived macrophages (BMM); assay: PGD2 production in LPS-activated BMM (EIA); assay type: cell-based
Experimental: as §1, with “(Invitrogen). […] The average PGD2 production from three independent experiments plus SEM is shown. * indicates p<0.05 versus LPS treatment alone. (Student's t test).” for “(Invitrogen).”

[3] = test system: BMM; assay: BMM cell viability by MTT assay; assay type: cell-based, mouse; conditions: LPS 10 ng/ml, 24 h, 10-100 μM
Experimental: as §1, §2

[4] = biological target: H-PGDS (Homo sapiens (Human), UniProt O60760); assay: H-PGDS catalyzed conjugation of GSH and CDNB, enzyme inhibition assay; assay type: biochemical; conditions: 50 μM compound; mean ± standard error of triplicate experiments; read-out: I[50], percent inhibition at 50 μM
Sequence of H-PGDS (O60760 whole entry): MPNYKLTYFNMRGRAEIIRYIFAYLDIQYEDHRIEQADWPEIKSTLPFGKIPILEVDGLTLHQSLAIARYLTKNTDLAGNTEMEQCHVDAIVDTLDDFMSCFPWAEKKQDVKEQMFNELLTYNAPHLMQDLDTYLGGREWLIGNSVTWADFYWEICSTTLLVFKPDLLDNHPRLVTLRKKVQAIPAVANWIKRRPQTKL
Experimental: H-PGDS was expressed and purified as described previously (Jowsey, 2001). Briefly, H-PGDS was expressed in Escherichia coli strain BL21 DE3 transformed with the pET17b HPGDS expression construct, grown overnight at 37° C. in 250 ml of Luria-Bertani medium supplemented with 100 μg/ml ampicillin. After 24 h, without induction, bacteria were harvested by centrifugation at 5000 g for 20 min at 4° C.; cell pellets were kept at −70° C. until required. Cells were resuspended in 25 ml of ice-cold phosphate buffered saline (PBS), pH 7.4, containing 1 mM DTT, 0.5% Triton X-100 and EDTA-free protease inhibitor tablets (F. Hoffmann-La Roche, Dee Why, NSW, Australia); and incubated with rotation for 30 mins at 4° C. Cells were then lysed by sonication at 90-100 W over 3×1 min intervals, while incubated on ice; the lysate clarified by centrifugation at 18000 g for 10 min at 4° C.
The supernatant was then applied to a GSTPrep FF 16/10 column pre-equilibrated with PBS, pH 7.4, and 1 mM DTT, at 0.4 ml/minute using an AKTA explorer 100 (GE Healthcare, Rydalmere, NSW, Australia), then washed with 5 column volumes of the same buffer at 1 ml/min. Bound H-PGDS was eluted in 5 column volumes of 15 mM reduced glutathione in 50 mM Tris, pH 9.0, at 0.5 ml/min, and dialysed against 100 volumes of 5 mM TrisCl, pH 8.0. The protein was concentrated to 20 mg/ml, as determined by the method of Bradford (Bradford, 1976) using an Amicon Ultra-4 centrifugal filter device (Millipore, North Ryde, NSW, Australia) following manufacturers recommendations. Glycerol was added to a final concentration of 10% (v/v) prior to storage at −20° C.
The H-PGDS catalyzed conjugation of GSH and 1-chloro-2,4-dinitrobenzene (CDNB) was used as the biochemical assay for enzyme inhibition. Reactions were performed in 96 well plate format, and product formation was followed at A340 nm over a 10 min interval at 25° C. using a POWERWAVE XS microplate scanning spectrophotometer (Bio-Tek Instruments, Winooski, Vt., USA). Reactions were performed in 0.1 M Tris HCl, pH 8.0 containing 2 mM MgCl2, 1 mM CDNB, 2 mM GSH, 2.5 ng/μ1 purified H-PGDS and 10% (v/v) ethanol in a 200 μl reaction volume. IC50 values were calculated from rates of conjugation activity determined at eight concentration points bracketing the IC50, where compound solubility allowed, and were corrected for background activity at the same solvent concentrations. All compounds were made up in 100% DMSO and diluted with 0.1 M Tris HCl, pH 8.0 with 2 mM MgCl2. I50 and IC50 values were determined at a final DMSO composition of no greater than 4% v/v for all compounds. Non-linear regression analysis and IC50 calculations were performed using GraphPad Prism version 4.0c.

[5] = test system: LPS-inducible 6-keto PGF1α (prostacyclin derivative) production from BMM; assay: 6-keto PGF1α production in LPS-activated BMM (EIA); assay type: cell-based; conditions: LPS-activated mouse BMM, 24 h
Experimental: as §1
(§3) BMM were seeded overnight at 2×10^5 cells/ml in 24 well plates before treatment with compound at either 10 μM or 0.1-100 μM for 24 h in the presence or absence of lipopolysaccharide (LPS) from Salmonella Minnesota (Sigma-Aldrich) at a final concentration of 10 ng/ml. […] Supernatants were collected and samples were analysed for PGD2 using Prostaglandin D2 Mox Express EIA kits, PGE2 using Prostaglandin E2 Express EIA kits, the prostacyclin derivative 6-keto PGF1α using the 6-keto Prostaglandin F1α EIA Kit and the Thromboxane A2 derivative TXB2 using the Thromboxane B2 Express EIA kit (Cayman Chemical) according to the manufacturer's instructions. […]

[6] = Rat pharmacokinetics, plasma concentration after oral dosing; assay type: in vivo, Sprague Dawley rat; conditions: single oral 40 mg/kg; for Concentration (individual rat): rat plasma
Experimental: Male adult Sprague Dawley rates (˜165 g) received a single oral bolus dose of 40 mg/kg of compound 3 in a 0.5% methylcellulose/0.1% Tween80 by oral gavage. Rats were sacrificed when collecting blood and spleen samples just prior to dosing and at 0.5 hours, 2 h, 8 h and 24 h (n=3 rats per time point), and the plasma concentration of compound 3 and the spleen PGD2 concentration was measured at each time point.
Blood samples were removed and kept cold at approximately 4° C. immediately after collection to minimize degradation and centrifuged as soon as possible at approximately 4000×g for 10 min. The plasma was transferred to a clean, pre-labelled polypropylene tube and frozen. Samples were stored at −20° C. as soon as possible after collection to minimise degradation of the test item.
Plasma concentrations of 3 were determined using a screening LC-ms/ms method developed using the following parameters:
Samples were analysed alongside plasma standards. Concentration data were determined by back calculation from standard curve.

[7] = test system: LPS-inducible TXB2 (thromboxane A2 derivative) production from BMM; assay: TXB2 production in LPS-activated BMM (EIA); assay type: cell-based; conditions: LPS-activated mouse BMM, 24 h
Experimental: as §1, §3

[8] = test system: LPS-inducible PGE2 production from BMM; assay: PGE2 production in LPS-activated BMM (EIA); assay type: cell-based; conditions: LPS-activated mouse BMM, 24 h
Experimental: as §1, §3

[9] = test system: PGD2 production from MEG-01S human megakaryocytes; assay: A23187-inducible PGD2 production in PMA-differentiated MEG-01S (EIA); assay type: cell-based; conditions: 0-100 μM
Experimental: as §1, §3

SMILES: c1ccc(-c2ncc(-c3cc[nH]n3)s2)cc1 [Compound 2]
- effect on MEG-01S cell viability [1]: little effect
- EC50 ([2]; Mus musculus, Macrophage, 24 h, read-out: EC50 for inhibition of PGD2 production): ~160 nM
- effect on BMM cell viability [3]: modest but significant effects

SMILES: O=C(c1ccc(-c2cccs2)nc1)N1CCC(N2C(=O)OCc3ccccc32)CC1 [Compound 13, 1-(1-(6-(thiophen-2-yl)nicotinoyl)piperidin-4-yl)-1H-benzo[d][1,3]oxazin-2(4H)-one]
- inhibition at 50 µM [4]: 87.9 ± 1.1%

SMILES: NC(=O)[C@H](Cc1ccccc1)NC(=O)c1ccc(-c2ccc(C(=O)O)s2)nc1 [Compound 15]
- inhibition at 50 µM [4]: 19.4 ± 1.4%

SMILES: c1ccc(C(OC2CCN(CCCc3nnn[nH]3)CC2)c2ccccc2)cc1 [Compound 1]
- effect on MEG-01S cell viability [1]: little effect
- effect on BMM cell viability [3]: modest but significant effects

SMILES: NC(=O)[C@H](Cc1ccccc1)NC(=O)c1ccc(-c2cccs2)nc1 (stereo in doubt) [Compound 3, N-(1-amino-1-oxo-3-phenylpropan-2-yl)-6-(thiophen-2-yl)-nicotinamide]
- concentration above which 6-keto PGF1α inhibition was observed [5]: above 10 μM
- effect on MEG-01S cell viability [1]: little effect
- Concentration (individual rat) ([6]; 0.5 h): 177 ng/mL
- Concentration (individual rat) ([6]; 24 h, BLOQ = below the lower limit of quantitation): BLOQ^2
- oral bioavailability ([6]; rat): orally bioavailable
- concentration above which TXB2 inhibition was observed [7]: above 10 μM
- concentration above which PGE2 inhibition was observed [8]: above 10 μM
- differential effect in inhibition of PGD2 versus PGE2, 6-keto PGF1α or TXB2 (selectivity) ([2]; LPS-activated mouse BMM): striking selectivity
- inhibition of PGD2 production ([2]; LPS-activated mouse BMM, 0-100 μM, 24 h): inhibited PGD2 production in the sub-micromolar range dose-dependently
- inhibition of PGD2 levels at 1 μM ([2]; LPS-activated mouse BMM, 1 μM): significantly inhibiting
- EC50 fold better than that estimated for compound 1 ([2]; LPS-activated mouse BMM, PGD2 production): ~30 fold
- effect on BMM cell viability [3]: did not affect BMM viability
- inhibition of A23187-inducible PGD2 production [9]: dose-dependently

SMILES: Cc1cc(-c2ccc(C(=O)N[C@@H](Cc3ccccc3)C(N)=O)cn2)sc1C#N [Compound 22]
- inhibition at 50 µM [4]: 34.6 ± 2.1%

SMILES: N#Cc1ccc(-c2ccc(C(=O)N[C@@H](Cc3ccccc3)C(N)=O)cn2)s1 [Compound 20]
- inhibition at 50 µM [4]: 67.9 ± 1.6%
